In PMC2653189 (PLoS ONE, 2009):
Where two headings read alike, the source gives them in different places. Each block holds one compound with its values, some of them ahead of it.

What was measured:
[1] = test system: breast cancer cell lines tested; test: Apoptosis assay, all breast cancer cell lines tested; format: cell-based, Human; conditions: any of the breast cancer cell lines tested; data not shown
Method: Human breast carcinoma cell lines MDA-MB-468, MDA-MB-231, MBA-MD-435 and MCF7 were kindly provided by Dr. Powel H. Brown (Breast Cancer Center, Baylor College of Medicine). Breast cancer cell line, MDA-MB-453 was kindly provided by Dr. Shou Jiang (Breast Cancer Center, Baylor College of Medicine). All cell lines were grown in DMEM medium supplemented with 10% fetal bovine serum (FBS), 25,000 units penicillin G, 25,000 µg streptomycin, and 131.4 mg L-Glutamine and cultured in the incubator under the condition of 95% air, 5% CO2 at 37°C [33]. Cells were seeded at 2,500 cells/cm^2 into 12-well plates. At 80% confluency, cells were washed with PBS and supplemented with fresh medium containing compound or the topoisomerase I-inhibitor, camptothecin, at 0, 0.1, 0.3, 1, 3, 10, 30, 100, 300 µM. At 24 hours, treatment was terminated by removing the medium from each well. Cells were lysed with cell lysis buffer (600 µl for 30 minutes at 25°C). […] The percent maximum nucleosome level was calculated by dividing the nucleosome level by the maximum nucleosome level achieved in the assay and multiplying by 100. This value was plotted as a function of the log compound concentration and the best-fitting curve and EC50 value determined using 4-Parameter Logistic Model/Dose Response/XLfit 4.2, IDBS software.

[2] = test system: IFN-γ-mediated Stat1 phosphorylation; test: Immunoblot of IFN-γ-mediated Stat1 phosphorylation in HepG2 cells; format: cell-based, human; conditions: compound 300 µM 1 hour, IFN-γ 30 ng/ml 30 min
Method: (§1) The human hepatocellular carcinoma cell line (HepG2) was grown in 6-well plates under standard conditions. Cells were pretreated with compounds (0, 1, 3, 10, 30, 100 and 300 µM) for 1 hour then stimulated under optimal conditions with either interleukin-6 (IL-6; 30 ng/ml for 30 min) to activate Stat3 or interferon gamma (IFN-γ; 30 ng/ml for 30 min) to activate Stat1 [28]. Cultures were then harvested and proteins extracted using high-salt buffer, as described. Briefly, extracts were mixed with 2× sodium dodecyl sulfate (SDS) sample buffer (125 mM Tris-HCL pH 6.8; 4% SDS; 20% glycerol; 10% 2-mercaptoethanol) at a 1∶1 ratio and heated for 5 minutes at 100°C. Proteins (20 µg) were separated by 7.5% SDS-PAGE and transferred to polyvinylidene fluoride (PVDF) membrane (Millipore, Waltham, MA) and immunoblotted. Prestained molecular weight markers (BioRad; Hercules, CA) were included in each gel. Membranes were probed serially with antibody against Stat1 pY701 or Stat3 pY705 followed by antibody against Stat1 or Stat3 (Transduction labs, Lexington, KY) then antibody against β–actin (Abcam, Cambridge, MA). Membranes were stripped between antibody probing using Restore™ Western Blot Stripping Buffer (Thermo Fisher Scientific Inc., Waltham, MA) per the manufacturer's instructions. Horseradish peroxidase-conjugated goat-anti-mouse IgG was used as the secondary antibody (Invitrogen Carlsbad, CA) and the membranes were developed with enhanced chemiluminescence (ECL) detection system (Amersham Life Sciences Inc.; Arlington Heights, IL.).
Figure 2 Effect of compounds on ligand-mediated Stat3 and Stat1 phosphorylation. […] Cells were then stimulated with IL-6 (30 ng/ml) for 30 min. Protein extracts of cells were separated by SDS-PAGE, blotted and developed serially with antibodies to pStat3, total Stat3 and β-actin. Blots were stripped between each antibody probing. Band intensities were quantified by densitometry. The value of each pStat3 band was divided by its corresponding total Stat3 band intensity; the results were normalized to the DMSO-treated control value. This value was plotted as a function of the log compound concentration. The best-fitting curve was determined using 4-Parameter Logistic Model/Dose Response/XLfit 4.2, IDBS software and was used to calculate the IC50 value (Table 1). Each panel is representative of 3 or more experiments. In panel G, HepG2 cells were pretreated with DMSO alone or DMSO containing each of the compounds at a concentration of 300 µM for 60 min. Cells were then stimulated with IFN-γ (30 ng/ml) for 30 min. Protein extracts of cells were separated by SDS-PAGE and immunoblotted serially with antibodies to pStat1, total Stat1 and β-actin. Blots were stripped between each immunoblotting. The results shown are representative of 2 or more experiments.

[3] = test system: IL-6-mediated phosphorylation of Stat3; test: Immunoblot of IL-6-mediated Stat3 phosphorylation in HepG2 cells; format: cell-based; conditions: Homo sapiens, compound 60 min, then IL-6 30 ng/ml 30 min, read-out: pStat3 IC50, inhibition of IL-6-mediated Stat3 phosphorylation
Method: as §1
Figure 2 Effect of compounds on ligand-mediated Stat3 and Stat1 phosphorylation. […] Cells were then stimulated with IL-6 (30 ng/ml) for 30 min. Protein extracts of cells were separated by SDS-PAGE, blotted and developed serially with antibodies to pStat3, total Stat3 and β-actin. Blots were stripped between each antibody probing. Band intensities were quantified by densitometry. […] The best-fitting curve was determined using 4-Parameter Logistic Model/Dose Response/XLfit 4.2, IDBS software and was used to calculate the IC50 value (Table 1). […]

Stat3 [4] = target: T1, Stat3 (Homo sapiens, UniProt P40763); test: Stat3/pY-peptide binding assay (SPR, BIAcore); conditions: recombinant Stat3 500 nM; immobilized EGFR Y1068 phosphododecapeptide; 25°C; read-out: SPR IC50, inhibition of Stat3 binding to pY peptide ligand
Method: A control (Stat3 with DMSO but without compound) was run at the beginning and the end of each cycle (40 sample injections) to ensure that the integrity of the sensor chip was maintained throughout the cycle run. The average of the two controls was normalized to 100% and used to evaluate the effect of each compound on Stat3 binding. Responses were normalized by dividing the value at 2 min by the response obtained in the absence of compounds at 2 min and multiplying by 100.

[5] = test system: IL-6-mediated Stat3 nuclear translocation (GFP-Stat3α); test: HTFM nuclear translocation assay in MEF/GFP-Stat3α cells; format: cell-based, murine; conditions: Mus musculus, compound 1 hour, then IL-6 200 ng/ml and IL-6sR 250 ng/ml 30 min, read-out: HTFM IC50, inhibition of IL-6-mediated Stat3 nuclear translocation
Method: Confocal and high-throughput fluorescence microscopy (HTFM) of MEF/GFP-Stat3α cells were performed as described. Briefly, for confocal fluorescence microscopy, cells were grown in 6-well plates containing a cover slip. For HTFM, cells were seeded into 96-well CC3 plates at a density of 5,000 cells/well using an automated plating system. Cells were cultured under standard conditions until 85–90% confluent. Cells were pre-treated with compound for 1 hour at 37°C then stimulated with IL-6 (200 ng/ml) and IL-6sR (250 ng/ml) for 30 minutes to provide optimal Stat3 activation and nuclear translocation in these cells, as described. Cells were fixed with 4% formaldehyde in PEM Buffer (80 mM Potassium PIPES, pH 6.8, 5 mM EGTA pH 7.0, 2 mM MgCl2) for 30 minutes at 4°C, quenched in 1 mg/ml of NaBH4 (Sigma) in PEM buffer and counterstained for 1 min in 4,6-diamidino-2-phenylindole (DAPI; Sigma; 1 mg/ml) in PEM buffer. Cover slips were examined by confocal fluorescent microscopy. Plates were analyzed by automated HTFM using the Cell Lab IC Image Cytometer (IC100) platform and Cytoshop Version 2.1 analysis software (Beckman Coulter). Nuclear translocation is quantified by using the fraction localized in the nucleus (FLIN) measurement. FLIN values were normalized by subtracting the FLIN for unstimulated cells then dividing this difference by the maximum difference (delta, Δ) in FLIN (FLIN in cells stimulated with IL-6/sIL-6R in the absence of compound minus FLIN of unstimulated cells). This ratio was multiplied by 100 to obtain the percentage of maximum difference in FLIN and was plotted, where indicated, as a function of the log compound concentration. The best-fitting curve and IC50 value were determined using 4-Parameter Logistic Model/Dose Response/XLfit 4.2, IDBS software.
Figure 4 Inhibition of cytoplasmic-to-nuclear translocation of Stat3 assessed by confocal and high-throughput fluorescence microscopy (HTFM). […] Coverslips were examined by confocal fluorescent microscopy using filters to detect GFP (column one), DAPI (column two) or both (merge; column three). In panel B, MEF-GFP-Stat3 cells were grown in 96-well plates with optical glass bottoms and pre-treated with the indicated compound at the indicated concentrations in quadruplicate for 1 hour then stimulated with IL-6 (200 ng/ml) and IL-6sR (250 ng/ml) for 30 minutes. Cells were fixed and the plates were examined by high-throughput microscopy to determine the fluorescence intensity in the nucleus (FLIN). The percent of maximum change (delta, Δ) in FLIN was calculated as described in the Methods and plotted as a function of the log of the compound concentration. […] Best-fit curves were determined using 4-Parameter Logistic Model/Dose Response/XLfit 4.2, IDBS software and were used to calculate the IC50 values (Table 2).

MDA-MB-231 xenografts = test system: MDA-MB-231 xenografts; design: method as in PMID 17463090; conditions: 5 mg/kg every 2–3 days; cited from earlier work
Stat3 [6] = target: T1, Stat3; design: method as in PMID 16220982; conditions: fluorescence polarization; read-out: IC50 inhibition of Stat3 binding to pY-peptide; cited from earlier work

T1 sequence (P40763 whole entry, species assumed): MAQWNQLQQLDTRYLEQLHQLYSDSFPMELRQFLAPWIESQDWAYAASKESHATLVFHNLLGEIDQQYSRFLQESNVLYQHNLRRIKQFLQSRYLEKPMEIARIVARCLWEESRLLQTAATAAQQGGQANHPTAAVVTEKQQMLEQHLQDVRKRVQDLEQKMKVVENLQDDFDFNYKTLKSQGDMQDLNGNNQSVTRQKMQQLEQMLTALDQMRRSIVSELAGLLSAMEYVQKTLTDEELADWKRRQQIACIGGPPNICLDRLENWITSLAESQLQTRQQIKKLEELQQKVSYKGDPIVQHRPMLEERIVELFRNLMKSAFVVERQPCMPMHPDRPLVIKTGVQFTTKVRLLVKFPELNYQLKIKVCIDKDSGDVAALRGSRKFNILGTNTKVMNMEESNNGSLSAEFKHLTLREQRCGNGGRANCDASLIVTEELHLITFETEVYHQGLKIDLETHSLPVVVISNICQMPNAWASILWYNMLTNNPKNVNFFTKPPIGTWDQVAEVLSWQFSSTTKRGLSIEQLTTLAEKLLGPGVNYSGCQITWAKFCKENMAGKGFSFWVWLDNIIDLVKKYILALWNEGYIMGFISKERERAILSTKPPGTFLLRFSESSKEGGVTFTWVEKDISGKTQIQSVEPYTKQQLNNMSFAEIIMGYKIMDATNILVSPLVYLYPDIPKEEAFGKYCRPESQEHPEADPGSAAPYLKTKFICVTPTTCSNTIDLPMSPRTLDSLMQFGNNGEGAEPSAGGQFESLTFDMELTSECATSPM

IC50 [3]: 144 µM
IC50 (Stat3 [4]): 256 µM
IC50 [5]: 150 µM
Compound: CCOc1cc(C=C2C(=O)c3ccccc3C2=O)cc(Cl)c1OCc1cccc(C(=O)O)c1 [Cpd3-2, 3-({2-chloro-4-[(1,3-dioxo-1,3-dihydro-2H-inden-2-ylidene)methyl]-6-ethoxyphenoxy}methyl)benzoic acid]
Apoptosis induction (in words) [1]: neither Cpd3-2 nor Cpd3-7 induced apoptosis
Block of IFN-γ-stimulated Stat1 phosphorylation [2]: did not

Compound: Cc1ccc(S(=O)(=O)OCC(=O)Nc2ccc(C(=O)O)c(O)c2)cc1 [S3I-201]
Xenograft growth (MDA-MB-231 xenografts): inhibited growth

Compound: hydrocinnamoyl-Tyr(PO3H2)-Leu-cis-3,4-methanoPro-Gln-NHB
IC50 (Stat3 [6]): 0.125 µM
